≈ marks a conversion by molar mass, not a printed value.

This passage reports IC50 results from patent publication US5529999A, “Antitumor compositions and methods of treatment” (Eli Lilly and Company, priority 1994, dated 1996).

This test deals with CCRF-CEM cells. Briefly: growth inhibition / cytotoxicity against CCRF-CEM human leukemia cells in vitro. The settings on record: serum-free UltraCHO media, 72 hours incubation, read-out: IC50 (concentration required for 50% inhibition of growth), CCRF-CEM. In kind it is cell-based. On the procedure:
The in vitro data were obtained using CCRF-CEM cells, a human leukemia cell line. Foley et al., Cancer, 18:522 (1965). These cells were grown in albumin-free UltraCHO® media (BioWhittaker, Inc., Walkersville, Md.) using standard techniques. See, e.g., G. B. Grindey, et al., Journal of Molecular Pharmacology, 16:601 (1979). Dose-response curves were generated for various compounds to determine the concentration required for 50% inhibition of growth (IC50). Cluster plates were prepared in duplicate with the compound at various concentrations. Test compounds were dissolved initially in DMSO at a concentration of 4 mg/ml and further diluted with solvent to the desired concentration. Cells in serum-free UltraCHO media were added to the well at a final concentration of 4.8×10^4 cells/well in a total volume of 2.0 ml. After 72 hours of incubation (95% air, 5% CO2), cell numbers were determined on a ZBI Coulter counter. Cell number for indicated controls at the end of incubation was usually (4-6)×10^5 cells/well. Cell viability was also measured by staining with 3-[4,5-dimethylthiazol-2-yl]-2,5-diphenyl-tetrazolium bromide (MTT) using standard techniques. R. I. Freshney, Culture of Animal Cells: A Manual of Basic Technique, 253-254 (2d ed. 1987).
Column 1 refers to the example number of the compound tested; Column 2 depicts the in vitro cytoxicity against CCRF-CEM cells by relating the concentration of the test compound required for 50% inhibition of growth (IC50) of the cells in the well. The designation "CSQ" refers to the compound 4-amino-N-(5-chloro-2-quinoxalinyl)benzenesulfonamide and is used as a comparator.
For `O=S(=O)(Nc1cnc2ccc(Cl)c(Cl)c2n1)c1ccc2c(c1)CCO2` [Example 15, N-(7,8-dichloro-2-quinoxalinyl)-2,3-dihydrobenzofuran-5-sulfonamide], the IC50 is 10.8 µg/mL (≈ 27.3 µM).
On to `CN(C)c1ccc(S(=O)(=O)Nc2cnc3cccc(Cl)c3n2)cc1` [Example 11, 4-N',N'-dimethylamino-N-(8-chloro-2-quinoxalinyl)benzenesulfonamide], for which the IC50 is 15.1 µg/mL (≈ 41.6 µM).
Take `O=S(=O)(Nc1cnc2c(Cl)cccc2n1)c1ccc2occc2c1` [Example 5, N-(5-chloro-2-quinoxalinyl)benzofuran-5-sulfonamide]: the IC50 is 0.2 µg/mL (≈ 0.556 µM).
Consider `CN(C)c1ccc(S(=O)(=O)Nc2cnc3ccc(Cl)c(Cl)c3n2)cc1` [Example 14, 4-N',N'-dimethylamino-N-(7,8-dichloro-2-quinoxalinyl)benzenesulfonamide], for which the IC50 came to 4.6 µg/mL (≈ 11.6 µM).
For `Cn1ccc2cc(S(=O)(=O)Nc3cnc4c(Cl)cccc4n3)ccc21` [Example 6, N-(5-chloro-2-quinoxalinyl)-1-methyl-1H-indole-5-sulfonamide], the IC50 was found to be 0.4 µg/mL (≈ 1.07 µM).
For the compound `CN(C)c1ccc(S(=O)(=O)Nc2cnc3cc(Cl)c(Cl)cc3n2)cc1` [Example 1, 4-N',N'-dimethylamino-N-(6,7-dichloro-2-quinoxalinyl)benzenesulfonamide], the IC50 amounted to 0.8 µg/mL (≈ 2.01 µM).
As for `CN1CCc2cc(S(=O)(=O)Nc3cnc4cc(Cl)ccc4n3)ccc21` [Example 8, N-(6-chloro-2-quinoxalinyl)-2,3-dihydro-1-methyl-1H-indole-5-sulfonamide], the IC50 stood at 1.5 µg/mL (≈ 4 µM).
Consider `CN(C)c1ccc(S(=O)(=O)Nc2cnc3ccc(Cl)cc3n2)cc1` [Example 9, 4-(N',N'-dimethylamino)-N-(7-chloro-2-quinoxalinyl)benzenesulfonamide], for which the IC50 worked out at 10.4 µg/mL (≈ 28.7 µM).
In the case of `Nc1ccc(S(=O)(=O)Nc2cnc3c(Cl)cccc3n2)cc1` [CSQ, 4-amino-N-(5-chloro-2-quinoxalinyl)benzenesulfonamide, reference compound], the IC50 came to 0.8 µg/mL (≈ 2.39 µM).
As for `CN(C)c1ccc(S(=O)(=O)Nc2cnc3c(Cl)cccc3n2)cc1` [Example 2, 4-N',N'-dimethylamino-N-(5-chloro-2-quinoxalinyl)benzenesulfonamide], the IC50 was found to be 0.1 µg/mL (≈ 0.276 µM).
The figure for `CN1CCc2cc(S(=O)(=O)Nc3cnc4ccc(Cl)cc4n3)ccc21` [Example 10, N-(7-chloro-2-quinoxalinyl)-2,3-dihydro-1-methyl-1H-indole-5-sulfonamide] is 10.8 µg/mL (≈ 28.8 µM).
For the compound `CN1CCc2cc(S(=O)(=O)Nc3cnc4c(Cl)cccc4n3)ccc21` [Example 3, N-(5-chloro-2-quinoxalinyl)-2,3-dihydro-1-methyl-1H-indole-5-sulfonamide], the IC50 stood at 0.3 µg/mL (≈ 0.8 µM).
For `O=S(=O)(Nc1cnc2c(Cl)cccc2n1)c1ccc2c(c1)CCO2` [Example 4, N-(5-chloro-2-quinoxalinyl)-2,3-dihydrobenzofuran-5-sulfonamide], the IC50 worked out at 0.3 µg/mL (≈ 0.829 µM).
`O=S(=O)(Nc1cnc2c(Cl)c(Cl)ccc2n1)c1ccc2c(c1)CCO2` [Example 13, N-(5,6-dichloro-2-quinoxalinyl)-2,3-dihydrobenzofuran-5-sulfonamide]: the IC50 is 6 µg/mL (≈ 15.1 µM).
As to `CN(C)c1ccc(S(=O)(=O)Nc2cnc3cc(Cl)ccc3n2)cc1` [Example 7, 4-N',N'-dimethylamino-N-(6-chloro-2-quinoxalinyl)benzenesulfonamide], the IC50 worked out at 1.2 µg/mL (≈ 3.31 µM).
For `CN(C)c1ccc(S(=O)(=O)Nc2cnc3c(Cl)c(Cl)ccc3n2)cc1` [Example 12, 4-N',N'-dimethylamino-N-(5,6-dichloro-2-quinoxalinyl)benzenesulfonamide], the IC50 is 7.2 µg/mL (≈ 18.1 µM).
